Assay results from ChEMBL document CHEMBL1201862, “PubChem BioAssay data set” (2004).
Calls of active or inactive are those of the source.

What was measured:
[1] = target: Nucleotide-binding oligomerization domain-containing protein 2 (Homo sapiens, UniProt Q9HC29); experiment: NOD2 signaling inhibitors, cell-based, luminescence, uHTS, HEK293 (AID 1566); assay type: functional
[2] = inhibitors of intracellular T. cruzi replication, confirmation, NIH3T3 host cells, beta-gal luminescence (AID 2044); assay type: functional, cell-based;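 further: intracellular parasites grown in NIH/3T3 mouse fibroblasts as host cells; luminescent beta-galactosidase reporter signal from transgenic T. cruzi replicating inside host cells; inhibitors lower the luminescence signal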
[3] = test system: Vero; experiment: cells; assay type: functional, cell-based; details: Chlorocebus sabaeus
[4] = test system: HEK293; experiment: cells; assay type: functional, cell-based; details: Homo sapiens
[5] = test system: INS1; experiment: beta cell apoptosis inhibitors, cytokine rescue, dose response, luminescence, retest (AID 449756); assay type: functional, cell-based; details: Rattus norvegicus;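 further: cell death triggered by IL-1 beta plus TNF-alpha plus IFN-gamma mixture; protective hits raise ATP signal compared with cytokine alone wells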
[6] = test system: HEK293; experiment: NOD2 signaling inhibitors in MDP-stimulated cells, cell-based, uHTS, luminescence (AID 2001); assay type: functional; details: Homo sapiens
[7] = test system: HEK293; experiment: cells; assay type: functional, cell-based; details: Homo sapiens; remark: listed apart in the source
[8] = test system: Vero; experiment: cells; assay type: functional; details: Chlorocebus sabaeus
[9] = target: Paired box protein Pax-8 (Homo sapiens, UniProt Q06710); experiment: inhibitors of PAX8-driven TPO luciferase reporter, dose response, RMG-I cells, cherry-pick (AID 687027); assay type: functional, cell-based;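 further: luciferase reporter driven by Pax8 target thyroperoxidase promoter measured by SteadyGlo luminescence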
Chain of Paired box protein Pax-8 (Q06710 whole entry): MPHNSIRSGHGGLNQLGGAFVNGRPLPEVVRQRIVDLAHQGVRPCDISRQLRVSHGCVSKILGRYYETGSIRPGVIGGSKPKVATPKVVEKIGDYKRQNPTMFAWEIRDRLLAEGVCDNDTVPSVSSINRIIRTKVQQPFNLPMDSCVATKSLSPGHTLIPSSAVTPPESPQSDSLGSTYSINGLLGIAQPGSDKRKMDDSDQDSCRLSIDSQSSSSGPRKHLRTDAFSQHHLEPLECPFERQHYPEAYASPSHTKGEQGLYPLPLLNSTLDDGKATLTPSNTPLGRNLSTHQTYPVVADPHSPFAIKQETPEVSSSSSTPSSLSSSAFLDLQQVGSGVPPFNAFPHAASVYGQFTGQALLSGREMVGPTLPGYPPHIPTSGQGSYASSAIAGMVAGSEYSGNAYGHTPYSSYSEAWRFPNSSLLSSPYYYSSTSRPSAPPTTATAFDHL

[10] = test system: HEK293; experiment: NOD1 signaling inhibitors, primary screen, cell-based, luminescence, uHTS (AID 1578); assay type: functional; details: Homo sapiens
[11] = cytotoxicity toward NIH3T3 fibroblasts, dose response, counter-screen, cell-based, ATP luminescence, mouse fibroblasts (AID 2010); assay type: functional;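 further: cells exposed to compound for about 90 hours before reading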
[12] = test system: HEK293; experiment: cells; assay type: functional, cell-based; details: Homo sapiens; remark: listed apart in the source
[13] = test system: Streptococcus; experiment: Group A Streptococcus viability loss, dose response, counter-screen for streptokinase expression inhibitor project, luminescence, BacTiterGlo (AID 1915); assay type: functional, organism-based;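 further: potency for reduction of bacterial viability or growth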
[14] = Vero E6 cell cytotoxicity, dose response, cytotoxicity control for non-replicating M. tuberculosis project, secondary assay (AID 492998); assay type: functional, VeroE6; details: Vero C1008
[15] = test system: Streptococcus sp. 'group A'; experiment: growth inhibition of control SK(-) GAS strain, dose response, counter-screen for streptokinase expression inhibitor project, luminescence, kanamycin, BacTiterGlo, confirmation (AID 1900); assay type: functional, organism-based
[16] = THP-1 cell cytotoxicity, dose response, cytotoxicity control for non-replicating M. tuberculosis project (AID 489025); assay type: functional
[17] = cells; assay type: functional
[18] = HepG2 cell cytotoxicity, dose response, cytotoxicity control for non-replicating M. tuberculosis project (AID 489018); assay type: functional; details: Mycobacterium tuberculosis
[19] = Luminescence Cell-Based Dose Response HTS to Identify Activators of Luciferase Translation or Activity in H4-C Neuroglioblastoma Cells. [Related pubchem assays: 1829 (Project Summary), 1814 (Primary HTS)]; assay type: functional
[20] = Luminescence Cell-Based Dose Response HTS to Identify Activators of 5'UTR Stem-Loop Driven Prion Protein mRNA Translation in H4-C Neuroglioblastoma Cells. [Related pubchem assays: 1829 (Project Summary), 1814 (Primary HTS)]; assay type: functional
[21] = test system: BJ; experiment: cells; assay type: functional, cell-based; details: Homo sapiens
[22] = cytotoxicity toward DRD oncogenic fibroblasts, dose response, cell-based, non-viral oncogenic, luminescence (AID 1934); assay type: functional; details: Homo sapiens
[23] = Luminescence Cell-Based Dose Response HTS to Identify Inhibitors of Luciferase Translation or Activity in H4-C Neuroglioblastoma Cells. [Related pubchem assays: 1813 (Primary HTS), 1827 (Project Summary)]; assay type: functional
[24] = inhibitors of SNCA 5'UTR-driven reporter translation, confirmation, H4 neuroglioma cells, luminescence (AID 1988); assay type: functional, cell-based
[25] = Luminescence Cell-Based Dose HTS Response to Identify Inhibitors of 5'UTR Stem-Loop Driven Prion Protein mRNA Translation in H4-C Neuroglioblastoma Cells. [Related pubchem assays (depositor defined):AID1814, AID1827]; assay type: functional
[26] = Luminescence Cell-Based Dose Confirmation HTS to Identify Inhibitors of 5'UTR Stem-Loop Driven Alpha-Synuclein mRNA Translation in H4 Neuroglioblastoma Cells. [Related pubchem assays: 1827 (Project Summary), 1813 (Primary HTS)]; assay type: functional
[27] = test system: BJ; experiment: cytotoxicity toward BJ-TERT-LT-ST fibroblasts, dose response, cell-based, RAS-independent, luminescence (AID 1935); assay type: functional; details: Homo sapiens;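 further: BJ fibroblasts immortalized with TERT plus LT and ST oncogenes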
[28] = inhibitors of firefly luciferase expression or activity, dose response, H4 neuroglioma cells, luminescence (AID 1990); assay type: functional, cell-based
[29] = Luminescence Cell-Based Dose Response HTS to Identify Inhibitors of 5'UTR Stem-Loop Driven Prion Protein mRNA Translation in H4 Neuroglioblastoma Cells. [Related pubchem assays: 1827 (Project Summary), 1813 (Primary HTS)]; assay type: functional
[30] = test system: BJ; experiment: cytotoxicity toward BJ-TERT fibroblasts, dose response, cell-based, RAS-independent, luminescence (AID 1933); assay type: functional; details: Homo sapiens
[31] = Luminescence Cell-Based Dose Retest to Confirm Activators of 5'UTR Stem-Loop Driven Alpha-Synuclein mRNA Translation in H4 Neuroglioblastoma Cells. [Related pubchem assays (depositor defined):AID1813, AID1829]; assay type: functional
[32] = test system: Vero; experiment: Vero cell cytotoxicity, cytotoxicity control for flavivirus capping enzyme inhibitors (AID 588742); assay type: functional; details: Chlorocebus sabaeus
[33] = target: Nonstructural protein 1 (Influenza A virus, UniProt Q194T2); assay type: functional, Influenza A virus (A/California/07/2009(H1N1))
Chain of Nonstructural protein 1 (Q194T2 whole entry): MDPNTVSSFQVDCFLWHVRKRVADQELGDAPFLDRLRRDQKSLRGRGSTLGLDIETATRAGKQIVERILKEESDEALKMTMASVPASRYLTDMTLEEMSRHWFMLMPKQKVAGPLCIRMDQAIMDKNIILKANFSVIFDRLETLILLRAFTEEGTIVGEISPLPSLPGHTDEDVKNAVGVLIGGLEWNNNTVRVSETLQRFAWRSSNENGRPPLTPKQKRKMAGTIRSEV

[34] = target: T1, E3 ubiquitin-protein ligase XIAP (Homo sapiens, UniProt P98170); experiment: Counter Screen using XIAP-Bir3 for Chemical Antagonists of Bir1/2 domains of IAP-family anti-apoptotic proteins. [Related pubchem assays (depositor defined):AID1018, AID1449, AID1514, AID1638, AID1749, AID1750, AID488957, AID488963]
T1 sequence (P98170 whole entry): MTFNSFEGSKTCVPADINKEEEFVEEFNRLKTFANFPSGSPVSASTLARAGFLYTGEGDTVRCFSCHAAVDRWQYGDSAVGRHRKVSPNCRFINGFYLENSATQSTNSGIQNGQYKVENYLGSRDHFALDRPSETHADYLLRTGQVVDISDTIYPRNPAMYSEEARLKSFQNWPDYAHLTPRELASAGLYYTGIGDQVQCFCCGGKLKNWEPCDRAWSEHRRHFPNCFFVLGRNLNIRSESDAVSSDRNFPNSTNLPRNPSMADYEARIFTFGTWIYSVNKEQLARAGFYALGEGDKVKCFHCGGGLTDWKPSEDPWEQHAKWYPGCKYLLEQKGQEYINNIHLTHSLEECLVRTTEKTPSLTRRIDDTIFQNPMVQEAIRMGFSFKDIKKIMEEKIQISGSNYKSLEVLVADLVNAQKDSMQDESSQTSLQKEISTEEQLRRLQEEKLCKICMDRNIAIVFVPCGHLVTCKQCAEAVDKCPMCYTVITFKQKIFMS

[35] = target: T1, E3 ubiquitin-protein ligase XIAP; experiment: XIAP antagonists, biochemical, IAP family, fluorescence polarization (AID 1018); assay type: functional
[36] = target: T2, Alkaline phosphatase, tissue-nonspecific isozyme (Homo sapiens, UniProt P05186); experiment: human TNAP enzyme inhibitors, SAR follow-up, biochemical, luminescent, dose response (AID 1056)
T2 sequence (P05186 whole entry): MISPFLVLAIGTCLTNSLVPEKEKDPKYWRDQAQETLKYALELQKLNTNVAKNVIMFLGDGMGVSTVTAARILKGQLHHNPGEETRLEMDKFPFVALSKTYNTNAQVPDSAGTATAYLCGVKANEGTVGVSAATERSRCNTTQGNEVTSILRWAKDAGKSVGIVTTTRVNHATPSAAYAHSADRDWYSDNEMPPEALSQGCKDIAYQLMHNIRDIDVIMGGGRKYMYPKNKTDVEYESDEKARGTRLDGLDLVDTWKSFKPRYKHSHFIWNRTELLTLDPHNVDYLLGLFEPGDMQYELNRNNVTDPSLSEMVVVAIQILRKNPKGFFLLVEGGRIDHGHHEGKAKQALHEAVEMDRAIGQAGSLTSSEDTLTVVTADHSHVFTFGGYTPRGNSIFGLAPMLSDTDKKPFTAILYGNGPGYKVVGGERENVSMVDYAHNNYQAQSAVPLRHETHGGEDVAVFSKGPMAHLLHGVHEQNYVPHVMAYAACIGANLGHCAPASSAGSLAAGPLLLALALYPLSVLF

[37] = target: Glyceraldehyde-3-phosphate dehydrogenase (Homo sapiens, UniProt P04406)
Chain of Glyceraldehyde-3-phosphate dehydrogenase (P04406 whole entry): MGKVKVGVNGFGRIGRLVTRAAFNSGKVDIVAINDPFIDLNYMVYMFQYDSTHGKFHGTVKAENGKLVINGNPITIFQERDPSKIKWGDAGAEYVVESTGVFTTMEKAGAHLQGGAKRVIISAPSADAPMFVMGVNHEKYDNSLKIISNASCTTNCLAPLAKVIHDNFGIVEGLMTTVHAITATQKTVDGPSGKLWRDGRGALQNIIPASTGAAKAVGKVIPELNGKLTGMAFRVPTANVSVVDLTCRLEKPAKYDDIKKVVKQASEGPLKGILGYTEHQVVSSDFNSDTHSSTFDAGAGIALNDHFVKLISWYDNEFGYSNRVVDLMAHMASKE

Chain of Nucleotide-binding oligomerization domain-containing protein 2 (Q9HC29 whole entry, the tested form may be a part): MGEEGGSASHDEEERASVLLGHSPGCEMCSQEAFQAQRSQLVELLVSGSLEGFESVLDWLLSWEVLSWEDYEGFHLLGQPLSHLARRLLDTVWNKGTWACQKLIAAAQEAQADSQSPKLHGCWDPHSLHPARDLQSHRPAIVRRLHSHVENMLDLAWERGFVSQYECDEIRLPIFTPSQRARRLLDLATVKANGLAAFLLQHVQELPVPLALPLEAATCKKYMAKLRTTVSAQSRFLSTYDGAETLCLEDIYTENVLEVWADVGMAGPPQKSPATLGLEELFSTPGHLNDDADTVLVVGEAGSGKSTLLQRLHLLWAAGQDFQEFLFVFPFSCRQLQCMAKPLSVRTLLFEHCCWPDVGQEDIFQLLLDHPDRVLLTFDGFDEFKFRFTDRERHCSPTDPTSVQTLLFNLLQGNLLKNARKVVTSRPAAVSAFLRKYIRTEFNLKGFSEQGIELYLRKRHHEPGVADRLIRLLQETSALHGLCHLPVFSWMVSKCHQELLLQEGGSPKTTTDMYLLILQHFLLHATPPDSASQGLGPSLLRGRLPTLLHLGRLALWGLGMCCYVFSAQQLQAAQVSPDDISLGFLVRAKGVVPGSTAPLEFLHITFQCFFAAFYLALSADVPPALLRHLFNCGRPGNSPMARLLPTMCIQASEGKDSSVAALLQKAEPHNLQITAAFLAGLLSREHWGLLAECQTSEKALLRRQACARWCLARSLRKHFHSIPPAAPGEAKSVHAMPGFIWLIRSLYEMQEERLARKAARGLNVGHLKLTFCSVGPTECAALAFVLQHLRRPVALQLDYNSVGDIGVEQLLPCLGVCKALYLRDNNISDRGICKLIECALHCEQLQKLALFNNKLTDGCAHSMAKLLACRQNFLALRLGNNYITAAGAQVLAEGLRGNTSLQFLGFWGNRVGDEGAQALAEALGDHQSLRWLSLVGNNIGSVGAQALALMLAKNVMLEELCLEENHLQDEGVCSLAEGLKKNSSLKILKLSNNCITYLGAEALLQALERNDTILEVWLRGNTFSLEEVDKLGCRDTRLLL

SMILES: C=C(C(=O)c1ccccc1)C(C(=C)C(=O)c1ccccc1)c1ccc(OC)cc1
- EC50 [1]: > 20 µM (inactive)
- EC50 [2]: 2.88 µM (active)
- IC50 [3]: > 25 µM (active)
- IC50 [4]: > 20 µM (inactive)
- AC50 [5]: 6.58 µM (active)
- IC50 [6]: 5.4 µM (inactive)
- IC50 [7]: > 20 µM (inactive)
- CC50 [8]: 11.2 µM (active)
- AC50 [9]: 2.66 µM (active)
- EC50 [10]: > 20 µM (inactive)
- EC50 [11]: 10.4 µM (active)
- IC50 [12]: 5.78 µM (active)

SMILES: O=C(NNC(=S)NC(=O)c1cn(-c2ccccc2)nc1-c1ccccc1)c1ccncc1
- EC50 [13]: 0.94 µM (active)
- CC50 [14]: 10 µM (active)
- IC50 [3]: 24.4 µM (active)
- EC50 [15]: 0.239 µM (active)
- CC50 [8]: 24.3 µM (active)
- CC50 [16]: 13.6 µM (active)
- IC50 [17]: 2.75 µM (active)
- CC50 [18]: > 20 µM (active)

SMILES: Cc1ccc(-c2cc(C(=O)N/N=C/c3c(C)nn(-c4ccccc4)c3C)[nH]n2)cc1
- EC50 [19]: 1.75 µM (inconclusive)
- EC50 [20]: 1.28 µM (inconclusive)
- EC50 [21]: 2.04 µM (inconclusive)
- EC50 [22]: 0.576 µM (active)
- EC50 [23]: 1.01 µM (active)
- EC50 [24]: 0.327 µM (active)
- EC50 [25]: 5.9 µM (active)
- EC50 [26]: 10.1 µM (active)
- EC50 [27]: 0.624 µM (inconclusive)
- EC50 [28]: 7.44 µM (active)
- EC50 [29]: 14 µM (active)
- EC50 [30]: 0.603 µM (active)
- EC50 [31]: 2.09 µM (inconclusive)

SMILES: O=C1/C(=C\c2cccc([N+](=O)[O-])c2O)SC(=S)N1Cc1ccccc1
- EC50 [1]: 9.56 µM (active)
- IC50 [4]: > 20 µM (inactive)
- CC50 [32]: 22.8 µM (active)
- IC50 [6]: 4.7 µM (inactive)
- IC50 [7]: 18.9 µM (active)
- IC50 [33]: 16.4 µM (active)
- EC50 [10]: 5.91 µM (active)

SMILES: COc1cc(NC(=O)C2CCCN2S(=O)(=O)c2cccc3cccnc23)cc(OC)c1OC (centres undefined)
- IC50 [34]: > 100 µM (inactive)
- IC50 [35]: > 100 µM (not active)

SMILES: CCOc1ccc(-c2cc(C(=O)O)[nH]n2)cc1
- IC50 [36]: 19.8 µM (active)
- IC50 [37]: > 100 µM (not active)
